# Experimental data taken from patent publication US20200164026A1, “Intranasal Delivery of Cell Permeant Therapeutics” (The Trustees of Columbia University in the City of New York, priority 2010, published 2020).
# Experiments:
# [1] = system: rats subjected to tMCAo; experiment: Ischemic infarct volume (H&E) after intranasal Pen1-XBIR3 and tMCAo; assay type: in vivo, rat; conditions: 24 hpr, n=3
# Description: (§1) Intranasal Delivery of Pen1-XBIR3. While under isofluorane anesthesia and lying on their backs, Pen1-XBIR3 (36.8 μM) was delivered to rats by administering 6 μl drops to alternating nares every two minutes for 20 minutes (60 μl total delivered). (Thorne, et al., Neuroscience 127 (2), 481-496 (2004)). Intranasal treatment was done prior to induction of stroke. Saline was used as a negative control. Brains were harvested for immunohistochemistry or western blotting.
# [2] = Intranasal delivery of Pen1-XBIR3 to rat CNS; western blot (anti-HIS) of coronal brain slices; assay type: in vivo; conditions: intranasal 60 μl, 1 hr after delivery
# Description: The following experiment was performed to ascertain if the Pen1-XBIR3 could also bypass the blood brain barrier via another delivery technique. […] (Dhuria, et al., J Pharm Sci 99 (4), 1654-1673 (2010); Liu, et al., J Stroke Cerebrovasc Dis 13 (1), 16-23 (2004); Liu, et al., J Neurol Sci 187 (1-2), 91-97 (2001)). This delivery method takes advantage of the olfactory pathway to bypass the blood brain barrier, however until now, proteins and compounds delivered via this method in rodent models have targeted extracellular targets, such as cell surface receptors. Since caspases, which are intracellular proteins, are targeted in this experiment, the cargo needed to be delivered intracellularly. […] Pent-XBIR3 was delivered intranasally to rats, after which brains were sliced coronally, and the presence of XBIR3 in the CNS determined by western blotting (FIG. 4A).
# as §1
# [3] = system: rats subjected to tMCAo; experiment: 24-point neurofunctional scale after 2 hr tMCAo, monitored for 21 days; assay type: in vivo, rat
# Description: The efficacy of Pent-XBIR3 to prevent sensory-motor disability caused by stroke was tested by giving rats either a prophylatic (pre-occlusion) or therapeutic (4 hours post reperfusion) intranasal bolus of vehicle or Pent-XBIR3 (prepared and administerd as described in section 6.8, below). Rodents were assayed with a 24-point neurofunctional scale starting at 1 day post-ischemia with testing every other day for 3 weeks after the ischemic event.
# as §1
# [4] = system: cleaved caspase-6 (c1-C6) and caspase-9; experiment: Pen1-XBIR3 delivered to the striatum (CED/ICC) prior to tMCAo; immunostaining for c1-C6 and caspase-9; assay type: in vivo, rat; conditions: delivered to striatum 1 hr prior to tMCAo, 24 hpr
# Text: (Davidson, et al., J Neurosci 24 (45), 10040-10046 (2004)). Upon entry into the cell the disulfide linkage is broken by the reducing environment of the cytoplasm, releasing the peptide cargo and allowing it to act at its target. Functional efficacy of this construct was confirmed using hippocampal neuronal cultures that were subjected to 4-hydroxynonenal (HNE) mediated death, a caspase-9 dependent death. (Rabacchi, et al., Neurobiol Aging 25 (8), 1057-1066 (2004)). […] To ensure that a Pen1-peptide could be delivered to the brain, Pen1 was linked to a FITC-labeled control peptide and delivered to the striatum using convection enhanced delivery (CED). Brains were harvested 24 hr after delivery, sectioned, and imaged. […] Pent-XBIR3 was delivered to the striatum 1 hr prior to tMCAo using ICC. Animals were harvested at 24 hpr and immunostained for caspase-9 and c1-C6. […]
# Pen1-XBIR3. […] Linkage was assessed by 20% SDS-PAGE and western blotting with anti-His antibody. […]
# Immunohistochemistry (IHC), Cell Process Quantification, and Statistical Analysis. […] Quantification of neurons and axons was accomplished using the Cell Counter plug-in for ImageJ (NIH). For quantification in the rat brain, 20x magnification images were acquired from the dorsal motor cortex and the […] somatosensory cortex forelimb region; both regions are contained are within the infarct penumbra (FIG. 1A). […]
substance,measurement,setting,value
"Pen1-XBIR3: BIR3 domain from XIAP, a specific caspase-9 inhibitor, disulfide-linked to Penetratin1 cell transduction peptide (SEQ ID NO: 10)",ischemic infarct volume,[1],reduces ischemic infarct volume
same,presence of XBIR3 in brain slices (anterior to posterior),[2],delivered to all slices of the brain
same,presence of XBIR3 in brain slices (anterior to posterior),[2]; listed as Pent-XBIR3,throughout the rat CNS
same,neurofunctional score (stroke related disability),[3]; prophylactic (pre-occlusion) intranasal bolus,less stroke related disability
same,neurofunctional score (stroke related disability),[3]; therapeutic (4 hours post reperfusion) intranasal bolus,functional recovery up to 21 d
same,neurofunctional score (stroke related disability),"[3]; therapeutic (4 hours post reperfusion) intranasal bolus, listed as Pent-XBIR3",less stroke related disability
same,caspase-9 and c1-C6 immunostaining in neuronal soma and processes,[4],blocks the increase in caspase-9 and the induction of c1-C6
same,caspase-9 and c1-C6 immunostaining in neuronal soma and processes,[4]; listed as Pent-XBIR3,inhibited appearance of c1-C6 and caspase-9
